Experiments:
[1] = application to skin of rats; cited from earlier work
[2] = Experiment 2: uptake of [14C]-vitamin D3 tracer into serum and conversion to [14C]-25(OH)D3; format: in vivo, Male Wistar rats
Procedure: One dose of [carbon-14]-labelled vitamin D3 was given at the time of the last of 14 daily doses of nonradioactive vitamin D3. The graphs show the uptake and metabolism of one [^14 C]-vitamin D3 dose during the course of gastric or dermal supplementation with vitamin D3. The tracer was given in addition to the usual, 8 μg/day vitamin D3 dose, and by the same route. Radioactivity in serum was isolated by chromatography to measure that which elutes as vitamin D3, or as […], Each point is the mean of results from six rats;
Uptake of radioactive vitamin D3 from skin or gut during the longer term treatment with vitamin D3 at 20 nmol/day.
The previous experiment 1 involved only one acute dose of a minute, tracer amount of vitamin D3. It remained possible that dermal application could not deliver a larger, more nutritionally relevant amount of vitamin D3. This experiment 2 looked at what happens when vitamin D3 is given during the course of daily treatment with a moderate amount of vitamin D3.
After 30 days, the rats were divided into three groups of 6: one group continued with no supplement, one group was given daily vitamin D3 supplement, 8 μg/day either by gastric tube, the third received the supplement by application to the skin in 50 μL ethanol. Vitamin D3 was given for 3 wk. The day before the rats were killed, the vitamin D3 dose was supplemented with [^14 C]-labelled vitamin D3, 915,000 cpm per rat. Blood was obtained from the tail of each rat at 3 h, 9 h, and by heart puncture when the rats were anesthetized for killing, 24 h after giving the tracer. The blood was extracted and chromatographed to distinguish [^14 C]-vitamin D3 from the [^14 C]-25(OH)D3generated from it. Radioactivity was also measured in the liver, kidney, and adipose tissue. Serum nonradioactive 25(OH)D3 was also measured.

[3] = Experiment 5: [14C]-vitamin D3 left on skin at application site; format: in vivo, Male Wistar rats; details: for % [14C]-D3 Left on Skin: 2 weeks, 1440 min
Procedure: This experiment was to compare potential toxic effects of vitamin D3 given for a 2 wk period, at the near-fatal dose of 800 μg per day by gastric tube, or by dermal administration at 800 μg/day or 2600 μg/day. Another goal was find evidence of saturable dermal uptake by including [^14 C]-vitamin D3 to monitor its removal from the skin at the high doses of vitamin D3.
Male Wistar rats, 190±10 g were obtained and divided into three groups of 7. They were treated for 2 weeks with one the following: 2000 nmol/day of vitamin D3 by gastric tube; 800 μg/day applied to a 2×2 cm patch of skin on the back; 2600 μg/day skin. The day before killing, 66,000 counts per minute of [^14 C]-vitamin D3 was applied along with the dermal dose to permit a determination of uptake from the skin. The rats were killed after two weeks for analysis of serum, urine, kidney, and aorta. The calcium in urine and acid-treated homogenate of kidney was measured by chemical colorimetry; aorta calcium was measured by treating with nitric acid measuring calcium by atomic absorption.

[4] = oral, in chylomicrons; cited from earlier work

C[C@H](CCCC(C)(C)O)[C@H]1CC[C@H]2C3=CC=C4CC(O)CC(O)[C@]4(C)[C@H]3CC[C@]12C (stereo partly shown) [1,25-dihydroxylated-7-dehydrocholesterol]
intestinal calcium transport [1]: increased | serum calcium [1]: increased

C=C1CC[C@H](O)[14CH2]/C1=C/C=C1\CCC[C@]2(C)[C@@H]([C@H](C)CCCC(C)C)CC[C@@H]12 [[^14 C]-vitamin D3]
time until [14C]-25(OH)D3 evident in serum ([2]; dermal administration, after dosing): ≥ 24 h | [14C]-25(OH)D3 detection in serum ([2]; oral dosing): detected in every sample | % [14C]-D3 Left on Skin ([3]; dermal 800 μg/day): 47.8% | % [14C]-D3 Left on Skin ([3]; dermal 2600 μg/day): 65.6% | proportion of administered vitamin D3 left in the skin, effect of dose ([3]; dermal 800 vs 2600 μg/day): only marginally affected by the dose

C=C1/C(=C\C=C2/CCC[C@]3(C)[C@@H]([C@H](C)CCCC(C)(C)O)CC[C@@H]23)C[C@@H](O)C[C@@H]1O [1,25(OH)2 D3]
intestinal calcium transport [1]: increased | serum calcium [1]: increased

C=C1CC[C@H](O)C/C1=C/C=C1\CCC[C@]2(C)[C@@H]([C@H](C)/C=C/[C@H](C)C(C)C)CC[C@@H]12 [vitamin D2]
activation into 25-hydroxyvitamin D2 [4]: partially activated into 25-hydroxyvitamin D2 relatively quickly

Reference: patent US5532229A, “Topical administration of vitamin D to mammals” (priority 1994, dated 1996)
